The numbers were not newly measured in US20150209442A1, “METHOD TO IMPROVE PHARMACOKINETICS OF DRUGS” (The Board of Regents of the University of Texas System, priority 2012, published 2015), which cites them from elsewhere.

For one series, the system named is TRPV1. The note with it: spinal cord; completely reversible by a TRPV1 antagonist.

Regarding 9-hydroxyoctadecadienoic acid [9-HODE], in the series with TRPV1, the tactile allodynia entry was “results in tactile allodynia”.

On to `COc1cc(CNC(=O)CCCC/C=C/C(C)C)ccc1O` [capsaicin], for which the tactile allodynia entry in the series on TRPV1 is given as “results in tactile allodynia”.

With `CC(C(=O)O)c1ccc(-c2ccccc2)c(F)c1` (stereo not shown) [flurbiprofen], the “bound to plasma proteins” value is > 99%. The “free (unbound) share of total concentration in plasma” value (plasma) is listed as ~0.1%.
